# Experimental data taken from ChEMBL document CHEMBL5614379, “The synthesis of 1,2,3-triazoles as binders of D-dopachrome tautomerase (D-DT) for the development of dual-targeting inhibitors” (Eur J Med Chem, 2024).
# pIC50: −log10 of the molar value. Calls of active or inactive are those of the source. The calls are words filed in the database; no cut-off is given here.
# What was measured:
# [1] = biological target: D-dopachrome decarboxylase (Homo sapiens, UniProt P30046); test: Inhibition of DDT (unknown origin) expressed in Escherichia coli by absorbance based analysis
# [2] = biological target: T1, Macrophage migration inhibitory factor (Homo sapiens) (UniProt P14174); test: Non-competitive inhibition of MIF (unknown origin) at 12.5 uM using pyruvic acid as substrate incubated for 10 mins by absorbance based analysis
# T1 sequence (whole entry): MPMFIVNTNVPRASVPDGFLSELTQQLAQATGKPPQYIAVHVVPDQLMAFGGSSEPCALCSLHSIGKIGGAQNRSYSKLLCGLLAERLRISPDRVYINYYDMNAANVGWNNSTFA
pIC50 [1],inhibition [2],Structure (SMILES)
4.57,,O=C(O)c1cccc(-c2cc(C(=O)O)ncc2C(=O)O)c1
,Active,COc1cccc2c1CC(NC(=O)c1cn(-c3ccc(Cl)c(C(F)(F)F)c3)nn1)CC2 (configuration not stated)
